Data as given in publication PMC6803965, “A New Class of β–Pyrrolidino-1,2,3-Triazole Derivatives as β-Adrenergic Receptor Inhibitors: Synthesis, Pharmacological, and Docking Studies” (Molecules, 2019).
In brackets after ≈: the same amount, converted by molar mass. Like-named read-outs stand apart in the source and are kept apart here.

Assays:
Salmonella paratyphi-B [1] = assay: Antimicrobial well method, zone of inhibition; assay type: cell-based
Experimental: (§1) Antimicrobial activity was carried out as described previously. Briefly, 20 mL of sterile Mueller Hinton agar (MHA) was poured in the petri plates and kept for solidification. After solidification, the test cultures were swabbed on the top of the media and kept for 10 min to dry. The required concentration (1 mg/well) of synthesized compounds 5a–l was added to each well and left for 30 min at RT for compound diffusion. Ketoconazole (fungi) and streptomycin (bacteria) used for positive controls. The zone of inhibition was recorded in mm and the experiment was repeated twice.

Enterobacter aerogenes [2] = assay: Antimicrobial well method, zone of inhibition; assay type: cell-based; settings: Klebsiella aerogenes
Experimental: as §1

Staphylococcus aureus [3] = assay: Antimicrobial well method, zone of inhibition; assay type: cell-based
Experimental: as §1

[4] = tested on: Staphylococcus aureus-MRSA; assay: Antimicrobial well method, zone of inhibition; assay type: cell-based
Experimental: as §1

Micrococcus luteus [5] = assay: Antimicrobial well method, zone of inhibition; assay type: cell-based
Experimental: as §1

[6] = tested on: Staphylococcus epidermidis; assay: Antimicrobial well method, zone of inhibition; assay type: cell-based
Experimental: as §1

Klebsiella pneumoniae [7] = assay: Antimicrobial well method, zone of inhibition; assay type: cell-based
Experimental: as §1

Salmonella typhimurium [8] = assay: Antimicrobial well method, zone of inhibition; assay type: cell-based; settings: Salmonella enterica
Experimental: as §1

Proteus vulgaris [9] = assay: Antimicrobial well method, zone of inhibition; assay type: cell-based
Experimental: as §1

Shigella flexneri [10] = assay: Antimicrobial well method, zone of inhibition; assay type: cell-based
Experimental: as §1

Salmonella paratyphi-B [11] = assay: Minimum inhibitory concentration (MIC); assay type: cell-based
Experimental: (§2) The MIC experiment was carried out according to the standard reference methods. Briefly, the required concentrations of synthesized compounds 5a–l were dissolved in DMSO (Dimethylsulfoxide) in concentrations of 500 µg/mL, 250 µg/mL, 125 µg/mL, 62.5 µg/mL, 31.25 µg/mL, 15.6 µg/mL, and […]. An inoculum of 100 µL from each well (96-well plate) was inoculated. For the positive control, ketoconazole (fungi) and streptomycin (bacteria) was used. The MIC values for the tested bacteria were identified as the lowest inhibiting concentration of compound on the agar plate in visual growth.

Enterobacter aerogenes [12] = assay: Minimum inhibitory concentration (MIC); assay type: cell-based; settings: Klebsiella aerogenes; Enterobacter aerogenes; read-out: Minimum inhibitory concentration
Experimental: as §2

Staphylococcus aureus [13] = assay: Minimum inhibitory concentration (MIC); assay type: cell-based; settings: read-out: Minimum inhibitory concentration
Experimental: as §2

[14] = tested on: Staphylococcus aureus-MRSA; assay: Minimum inhibitory concentration (MIC); assay type: cell-based; settings: read-out: Minimum inhibitory concentration
Experimental: as §2

Micrococcus luteus [15] = assay: Minimum inhibitory concentration (MIC); assay type: cell-based; settings: read-out: Minimum inhibitory concentration
Experimental: as §2

[16] = tested on: Staphylococcus epidermidis; assay: Minimum inhibitory concentration (MIC); assay type: cell-based; settings: read-out: Minimum inhibitory concentration
Experimental: as §2

Klebsiella pneumoniae [17] = assay: Minimum inhibitory concentration (MIC); assay type: cell-based; settings: read-out: Minimum inhibitory concentration
Experimental: as §2

Salmonella typhimurium [18] = assay: Minimum inhibitory concentration (MIC); assay type: cell-based; settings: Salmonella enterica, read-out: Minimum inhibitory concentration
Experimental: as §2

Proteus vulgaris [19] = assay: Minimum inhibitory concentration (MIC); assay type: cell-based; settings: read-out: Minimum inhibitory concentration
Experimental: as §2

Shigella flexneri [20] = assay: Minimum inhibitory concentration (MIC); assay type: cell-based
Experimental: as §2

Candida albicans = assay: Antimicrobial well method, zone of inhibition; assay type: cell-based; settings: 1 mg/well
Experimental: as §1

Malassezia pachydermatis = assay: Antimicrobial well method, zone of inhibition; assay type: cell-based
Experimental: as §1

HepG-2 cells = assay: Cytotoxicity, aqueous one solution reagent; assay type: cell-based; settings: for IC50: read-out: IC50 against HepG-2
Experimental: (§3) The cytotoxic study was carried out as reported previously. Briefly, IMR90, HepG-2, and A549 cells were grown in DMEM (Dulbecco’s Modified Eagle Medium) that contained 10% fetal bovine serum and 1% antibiotics. A total of 15 × 10^3 cells/well were seeded in 96-well plates and incubated under humidified conditions. Cells were treated with varying concentrations of synthesized triazoles for 24 h. After a 24 h treatment, 20 µL aqueous one solution reagent was added to each well and incubated for 3–4 h under a humidified condition. For IMR90 cells, MTT (MTT = 3-(4,5-dimethyl-2-thiazolyl)-2,5-diphenyl-2H-tetrazolium bromide) (5 mg/mL) was added and incubated for 3–4 h in the dark. After incubation, 100 µL of a 10% SDS (Sodium Dodecyl Sulfate) solution (0.01% HCl) was added to each well. The data was taken using an ELISA (enzyme-linked immunosorbent assay) reader at the absorbance of 490 nm for HepG-2 and A549 cells and 570 nm for IMR90 cells. The cell death was calculated using the following formula: Inhibition (%) = ((A − B)/A) × 100 (A—control group, B—treated group).

A549 cells = assay: Cytotoxicity, aqueous one solution reagent; assay type: cell-based; settings: for IC50: 24 h treatment, read-out: IC50 against A549
Experimental: as §3

IMR90 cells = assay: Cytotoxicity on normal cells, MTT; assay type: cell-based; settings: IMR-90, human normal IMR90 cells, 24 h treatment, read-out: IC50 against IMR90
Experimental: as §3

| Compound | zone of inhibition at 1 mg/well (Salmonella paratyphi-B [1]) [mm] | zone of inhibition at 1 mg/well (Enterobacter aerogenes [2]) [mm] | zone of inhibition at 1 mg/well (Staphylococcus aureus [3]) [mm] | zone of inhibition at 1 mg/well [4] [mm] | zone of inhibition at 1 mg/well (Micrococcus luteus [5]) [mm] | zone of inhibition at 1 mg/well [6] [mm] | zone of inhibition at 1 mg/well (Klebsiella pneumoniae [7]) [mm] | zone of inhibition at 1 mg/well (Salmonella typhimurium [8]) [mm] | zone of inhibition at 1 mg/well (Proteus vulgaris [9]) [mm] | melting point [°C] | zone of inhibition at 1 mg/well (Shigella flexneri [10]) [mm] | MIC (Salmonella paratyphi-B [11]) [µg/mL] | MIC (Enterobacter aerogenes [12]) [µg/mL] | MIC (Staphylococcus aureus [13]) [µg/mL] | MIC ([14]; Staphylococcus aureus-MRSA) [µg/mL] | MIC (Micrococcus luteus [15]) [µg/mL] | MIC [16] [µg/mL] | MIC (Klebsiella pneumoniae [17]) [µg/mL] | MIC (Shigella flexneri [20]) [µg/mL] | zone of inhibition at 1 mg/well (Malassezia pachydermatis) [mm] | other results |
| --- | --- | --- | --- | --- | --- | --- | --- | --- | --- | --- | --- | --- | --- | --- | --- | --- | --- | --- | --- | --- | --- |
| C[C@@H]([C@@H](c1ccccc1)n1cc(CC2(O)CCCCC2)nn1)N1CCCC1 [5b, (1R,2S)-1-((1-(1-Phenyl-2-(pyrrolidin-1-yl)propyl)-1H-1,2,3-triazol-4-yl)methyl) cyclohexanol] | 11 | 12 | 10 | 12 | 13 | 10 | 10 | 11 | 12 | 137 to 138 | – | – | – | – | – | – | – | – | – | – | – |
| C[C@@H]([C@@H](c1ccccc1)n1cc(COC(=O)C=Cc2ccccc2)nn1)N1CCCC1 [5c, (1R,2S)-(1-(1-Phenyl-2-(pyrrolidin-1-yl)propyl)-1H-1,2,3-triazol-4-yl)methyl cinnamate] | 14 | 14 | 16 | 18 | 16 | 15 | 12 | 12 | 10 | 140 to 141 | 13 | 250 (≈ 600 µM) | 250 (≈ 600 µM) | 125 (≈ 300 µM) | 125 (≈ 300 µM) | 125 (≈ 300 µM) | 250 (≈ 600 µM) | 500 (≈ 1200 µM) | 250 (≈ 600 µM) | – | MIC (Salmonella typhimurium [18]; Salmonella typhimurium): 500 µg/mL (≈ 1200 µM); MIC (Proteus vulgaris [19]): 500 µg/mL (≈ 1200 µM) |
| C[C@@H]([C@@H](c1ccccc1)n1cc(COC(=O)c2ccccc2)nn1)N1CCCC1 [5d, (1R,2S)-(1-(1-Phenyl-2-(pyrrolidin-1-yl)propyl)-1H-1,2,3-triazol-4-yl)methyl benzoate] | 14 | 10 | 13 | 16 | 19 | 13 | – | 12 | – | 129 to 130 | 13 | 250 (≈ 640 µM) | 500 (≈ 1280 µM) | 250 (≈ 640 µM) | 125 (≈ 320 µM) | 62.5 (≈ 160 µM) | 250 (≈ 640 µM) | – | 250 (≈ 640 µM) | 10 | zone of inhibition (Candida albicans): 13 mm; MIC (Salmonella typhimurium [18]; Salmonella typhimurium): 500 µg/mL (≈ 1280 µM) |
| COc1ccc(Br)c(C(=O)OCc2cn(C(c3ccccc3)C(C)N3CCCC3)nn2)c1 [5e, (1R,2S)-(1-(1-Phenyl-2-(pyrrolidin-1-yl)propyl)-1H-1,2,3-triazol-4-yl)methyl-2-bromo-5-methoxy benzoate] | 10 | 10 | 12 | 10 | 15 | 10 | 10 | 12 | 13 | – | 15 | – | – | – | – | – | – | – | – | 14 | cytotoxic activity against HepG-2 cells (HepG-2 cells): moderate activity; IC50 (HepG-2 cells; Homo sapiens, HepG2, 24 h treatment): 164 ± 2.01 µM; cytotoxic / anticancer activity against A549 cells (A549 cells): promising anticancer activity; IC50 (A549 cells; Homo sapiens): 130 ± 0.65 µM; IC50 (IMR90 cells): > 250 µM; zone of inhibition (Candida albicans): 15 mm |
| CC([C@@H](c1ccccc1)n1cc(CN(C)[C@@H](C)Cc2ccccc2)nn1)N1CCCC1 (stereo partly drawn) [5f, (1R,2S)-N-Methyl-1-phenyl-N-((1-(1-phenyl-2-(pyrrolidin-1-yl)propyl)-1H-1,2,3-triazol-4-yl)methyl)propan-2-amine] | 14 | – | – | 15 | 13 | 17 | 18 | – | – | 118 to 119 | 19 | 250 (≈ 599 µM) | – | – | 250 (≈ 599 µM) | 250 (≈ 599 µM) | 125 (≈ 299 µM) | 125 (≈ 299 µM) | 62.5 (≈ 150 µM) | 12 | – |
| CCC(C(=O)OCc1cn(C(c2ccccc2)C(C)N2CCCC2)nn1)c1ccccc1 [5l, (1R,2S)-((1-(1-Phenyl-2-(pyrrolidin-1-yl)propyl)-1H-1,2,3-triazol-4-yl)methyl 2-phenylbutanoate] | – | – | – | – | – | – | – | – | – | 127 to 129 | – | – | – | – | – | – | – | – | – | 12 | – |
| N.N.[Cl][Pt][Cl] [Cisplatin, reference compound] | – | – | – | – | – | – | – | – | – | – | – | – | – | – | – | – | – | – | – | – | IC50 (HepG-2 cells; 24 h treatment): 22.1 ± 3.08 µM; IC50 (A549 cells): 16.4 ± 3.19 µM |
| CC(=O)N1CCN(c2ccc(OCC3COC(Cn4ccnc4)(c4ccc(Cl)cc4Cl)O3)cc2)CC1 (centres unmarked) [Ketoconazole, reference compound] | – | – | – | – | – | – | – | – | – | – | – | – | – | – | – | – | – | – | – | 26 | zone of inhibition (Candida albicans): 28 mm |
| [H]/N=C(/N)N[C@H]1[C@H](O)[C@@H](O)[C@H](O[C@@H]2O[C@@H](C)[C@](O)(C=O)[C@H]2O[C@@H]2O[C@@H](CO)[C@H](O)[C@@H](O)[C@@H]2NC)[C@@H](N/C(N)=N\[H])[C@@H]1O [Streptomycin, reference compound] | 18 | 22 | 14 | 30 | 26 | 26 | 20 | 24 | 30 | – | 30 | 30 (≈ 51.6 µM) | 25 (≈ 43 µM) | 6.25 (≈ 10.7 µM) | – | 6.25 (≈ 10.7 µM) | 25 (≈ 43 µM) | 25 (≈ 43 µM) | 6.25 (≈ 10.7 µM) | – | MIC ([14]; Staphylococcus, MRSA): 6.25 µg/mL (≈ 10.7 µM); MIC (Salmonella typhimurium [18]; TYPHIMURIUM): 6.25 µg/mL (≈ 10.7 µM); MIC (Proteus vulgaris [19]): 6.25 µg/mL (≈ 10.7 µM) |
